Assay results from patent US6498253B1, “Acylated aminophenylsulfonylureas, processes for their preparation and their use as herbicides and plant growth regulators” (priority 1994, dated 2002).

Tests used:
[1] = system: Sinapis alba, Chrysanthemum segetum, Avena sativa, Stellaria media, Alopecurus myosuroides and Lolium multiflorum; experiment: Herbicidal action, pre-emergence (greenhouse pot test); type: in vivo; details: applied pre-emergence, 0.3 kg and less of active substance per hectare; rated visually after 3 to 4 weeks vs untreated controls
From the text: Seeds or pieces or rhizome of mono- and dicotyledon weed plants were laid out in sandy loam soil in plastic pots and covered with soil. The compounds according to the invention, formulated in the form of wettable powders or emulsion concentrates, were then applied to the surface of the covering soil as an aqueous suspension or emulsion in various dosages, with an amount of water applied, when converted, of 600 to 800 l/ha.
After the treatment, the pots were placed in a greenhouse and kept under good growth conditions for the weeds. The plant damage or emergence damage was rated visually after emergence of the test plants after a test period of 3 to 4 weeks in comparison with untreated controls.

[2] = system: Sinapis alba, Stellaria media, Alopecurus myosuroides and Lolium multiflorum, Chrysanthemum segetum and Avena sativa; experiment: Herbicidal action, post-emergence (greenhouse pot test); type: in vivo; details: applied postemergence in three-leaf stage, 0.3 kg or less of active substance per hectare; rated visually after about 3 to 4 weeks vs untreated controls
Experimental: Seeds or pieces of rhizome of mono- and dicotyledon weeds were laid out in sandy loam soil in plastic pots, covered with soil and grown in a greenhouse under good growth conditions. Three weeks after sowing, the test plants were treated in the three-leaf stage.
The compounds according to the invention, formulated as wettable powders or as emulsion concentrates, were sprayed onto the green parts of plants in various dosages with an amount of water applied of, when converted, 600 to 800 l/ha, and after the test plants had stood in a greenhouse for about 3 to 4 weeks under optimum growth conditions, the action of the preparations was rated visually in comparison with untreated controls. The compositions according to the invention also show a good herbicidal activity against a broad spectrum of economically important graminaceous weeds and broad-leafed weeds when applied post-emergence.

| SMILES | melting point | herbicidal action, pre-emergence [1] | herbicidal action, post-emergence [2] |
| --- | --- | --- | --- |
| CCC(=O)Nc1ccc(C(=O)N(C)C)c(S(=O)(=O)NC(=O)Nc2nc(OC)cc(OC)n2)c1 | 135 to 140 °C (dec.) |  |  |
| COc1cc(OC)nc(NC(=O)[N-]S(=O)(=O)c2cc(NC=O)ccc2C(=O)N(C)C)n1.[Na+] [1 from Table 2] |  | very good herbicidal action |  |
| COc1cc(OC)nc(NC(=O)[N-]S(=O)(=O)c2cc(NC(C)=O)ccc2C(=O)N(C)C)n1.[Na+] [7 from Table 2] |  | very good herbicidal action |  |
| COc1cc(OC)nc(NC(=O)NS(=O)(=O)c2cc(NC=O)ccc2C(=O)N(C)C)n1 [8 from Table 1] |  | very good herbicidal action | very good herbicidal action |
| COc1cc(OC)nc(NC(=O)NS(=O)(=O)c2cc(NC(C)=O)ccc2C(=O)N(C)C)n1 [15 from Table 1] |  | very good herbicidal action | very good herbicidal action |
| COc1cc(OC)nc(NC(=O)[N-]S(=O)(=O)c2cc(NC(=O)C(C)C)ccc2C(=O)N(C)C)n1.[Na+] [16 from Table 2] |  | very good herbicidal action |  |
| COc1cc(OC)nc(NC(=O)[N-]S(=O)(=O)c2cc(NC(=O)C(F)(F)F)ccc2C(=O)N(C)C)n1.[Na+] [17 from Table 2] |  | very good herbicidal action |  |
| COC(=O)Nc1ccc(C(=O)N(C)C)c(S(=O)(=O)[N-]C(=O)Nc2nc(C)nc(OC)n2)c1.[Na+] [20 from Table 2] |  | very good herbicidal action |  |
| COC(=O)Nc1ccc(C(=O)N(C)C)c(S(=O)(=O)[N-]C(=O)Nc2nc(OC)cc(OC)n2)c1.[Na+] [21 from Table 2] |  | very good herbicidal action |  |
| CCC(=O)Nc1ccc(C(=O)N(C)C)c(S(=O)(=O)NC(=O)Nc2nc(OC)cc(OC)n2)c1 [22 from Table 1] |  | very good herbicidal action | very good herbicidal action |
| COC(=O)Nc1ccc(C(=O)N(C)C)c(S(=O)(=O)[N-]C(=O)Nc2nc(Cl)cc(OC)n2)c1.[Na+] [22 from Table 2] |  | very good herbicidal action |  |
| COc1cc(OC)nc(NC(=O)NS(=O)(=O)c2cc(NC(=O)C(C)C)ccc2C(=O)N(C)C)n1 [25 from Table 1] |  | very good herbicidal action | very good herbicidal action |
| CCOC(=O)Nc1ccc(C(=O)N(C)C)c(S(=O)(=O)[N-]C(=O)Nc2nc(OC)cc(OC)n2)c1.[Na+] [26 from Table 2] |  | very good herbicidal action |  |
| COc1cc(OC)nc(NC(=O)NS(=O)(=O)c2cc(NC(=O)C(C)(C)C)ccc2C(=O)N(C)C)n1 [30 from Table 1] |  | very good herbicidal action | very good herbicidal action |
| COc1cc(C)nc(NC(=O)NS(=O)(=O)c2cc(NC(=O)C(F)(F)F)ccc2C(=O)N(C)C)n1 [40 from Table 1] |  | very good herbicidal action | very good herbicidal action |
| COc1nc(NC(=O)NS(=O)(=O)c2cc(NC(=O)C(F)(F)F)ccc2C(=O)N(C)C)nc(OC)n1 [44 from Table 1] |  | very good herbicidal action | very good herbicidal action |
| COC(=O)Nc1ccc(C(=O)N(C)C)c(S(=O)(=O)NC(=O)Nc2nc(OC)cc(OC)n2)c1 [53 from Table 1] |  | very good herbicidal action | very good herbicidal action |
| COC(=O)Nc1ccc(C(=O)N(C)C)c(S(=O)(=O)NC(=O)Nc2nc(Cl)cc(OC)n2)c1 [55 from Table 1] |  | very good herbicidal action | very good herbicidal action |

| SMILES | melting point | herbicidal action, pre-emergence [1] | herbicidal action, post-emergence [2] |
| --- | --- | --- | --- |
| COC(=O)Nc1ccc(C(=O)N(C)C)c(S(=O)(=O)NC(=O)Nc2nc(C)nc(OC)n2)c1 [58 from Table 1] |  | very good herbicidal action | very good herbicidal action |
| CCOC(=O)Nc1ccc(C(=O)N(C)C)c(S(=O)(=O)NC(=O)Nc2nc(OC)cc(OC)n2)c1 [59 from Table 1] |  | very good herbicidal action | very good herbicidal action |
| COc1cc(OC)nc(NC(=O)NS(=O)(=O)c2cc(NC(=O)OCCCl)ccc2C(=O)N(C)C)n1 [65 from Table 1] |  | very good herbicidal action | very good herbicidal action |
| CCNC(=O)Nc1ccc(C(=O)N(C)C)c(S(=O)(=O)NC(=O)Nc2nc(OC)cc(OC)n2)c1 [72 from Table 1] |  | very good herbicidal action | very good herbicidal action |
| COc1cc(OC)nc(NC(=O)NS(=O)(=O)c2cc(NS(C)(=O)=O)ccc2C(=O)N(C)C)n1 [77 from Table 1] |  | very good herbicidal action | very good herbicidal action |
| CNS(=O)(=O)Nc1ccc(C(=O)N(C)C)c(S(=O)(=O)NC(=O)Nc2nc(OC)cc(OC)n2)c1 [87 from Table 1] |  | very good herbicidal action | very good herbicidal action |
| COc1cc(OC)nc(NC(=O)NS(=O)(=O)c2cc(NC(=O)C3CC3)ccc2C(=O)N(C)C)n1 [115 from Table 1] |  | very good herbicidal action | very good herbicidal action |
| CCN(C)C(=O)c1ccc(NC=O)cc1S(=O)(=O)NC(=O)Nc1nc(OC)cc(OC)n1 [116 from Table 1] |  | very good herbicidal action | very good herbicidal action |
| COc1cc(OC)nc(NC(=O)NS(=O)(=O)c2cc(NC=O)ccc2C(=O)N(C)C)n1.[Na] [Example 1 from Table 2, N-[(4,6-dimethoxypyrimidin-2-yl)-aminocarbonyl]-2-dimethylaminocarbonyl-5-formylamino-benzenesulfonamide sodium salt] |  |  | very good herbicidal action |
| COc1cc(OC)nc(NC(=O)[N-]S(=O)(=O)c2cc(NC(C)=O)ccc2C(=O)N(C)C)n1.[Na+] [Example 7 from Table 2] |  |  | very good herbicidal action |
| CCC(=O)Nc1ccc(C(=O)N(C)C)c(S(=O)(=O)NC(=O)Nc2nc(OC)cc(OC)n2)c1.[Na] [Example 12 from Table 2, N-[(4,6-dimethoxypyrimidin-2-yl)-aminocarbonyl]-2-dimethylaminocarbonyl-5-propionylamino-benzenesulfonamide sodium salt] | 212 °C (dec.) |  | very good herbicidal action |
| COc1cc(OC)nc(NC(=O)[N-]S(=O)(=O)c2cc(NC(=O)C(C)C)ccc2C(=O)N(C)C)n1.[Na+] [Example 16 from Table 2] |  |  | very good herbicidal action |
| COc1cc(OC)nc(NC(=O)[N-]S(=O)(=O)c2cc(NC(=O)C(F)(F)F)ccc2C(=O)N(C)C)n1.[Na+] [Example 17 from Table 2] |  |  | very good herbicidal action |
| COC(=O)Nc1ccc(C(=O)N(C)C)c(S(=O)(=O)[N-]C(=O)Nc2nc(C)nc(OC)n2)c1.[Na+] [Example 20 from Table 2] |  |  | very good herbicidal action |
| COC(=O)Nc1ccc(C(=O)N(C)C)c(S(=O)(=O)NC(=O)Nc2nc(OC)cc(OC)n2)c1.[Na] [Example 21 from Table 2, N-[(4,6-dimethoxypyrimidin-2-yl)-aminocarbonyl]-2-dimethylaminocarbonyl-5-methoxycarbonylamino-benzenesulfonamide sodium salt] | 187 to 191 °C (dec.) |  | very good herbicidal action |
| COC(=O)Nc1ccc(C(=O)N(C)C)c(S(=O)(=O)[N-]C(=O)Nc2nc(Cl)cc(OC)n2)c1.[Na+] [Example 22 from Table 2] |  |  | very good herbicidal action |
| CCOC(=O)Nc1ccc(C(=O)N(C)C)c(S(=O)(=O)[N-]C(=O)Nc2nc(OC)cc(OC)n2)c1.[Na+] [Example 26 from Table 2] |  |  | very good herbicidal action |
